{"source": "patent US9447449B2", "about": "“Recombinant mycobacteriophages for delivery of nucleic acids of interest into mycobacteria” (Albert Einstein College of Medicine of Yeshiva University, priority 2011, dated 2016)", "test_system": "M. tuberculosis mc^26230", "type": "cell-based"}
{"smiles": "NNC(=O)c1ccncc1", "note": "[isoniazid]", "values": [{"measurement": "MFI relative to untreated control", "value": "lower than the untreated control"}, {"measurement": "average fluorescence decreased by", "value": 64, "unit": "%"}, {"measurement": "effect of 18 hr pre-treatment prior to phage addition on DST signal", "value": "increased the difference between treated and non-treated samples"}, {"measurement": "six hour pre-incubation to determine drug sensitivity", "value": "not sufficient"}]}
{"smiles": "NC[C@H]1O[C@H](O[C@H]2[C@H](O)[C@@H](O[C@H]3O[C@H](CO)[C@@H](O)[C@H](N)[C@H]3O)[C@H](N)C[C@@H]2N)[C@H](O)[C@@H](O)[C@@H]1O", "note": "[kanamycin]", "values": [{"measurement": "fluorescence of the M. tuberculosis cells diminished by", "value": "approximately 85%"}]}
{"smiles": "CO[C@H]1/C=C/O[C@@]2(C)Oc3c(C)c(O)c4c(O)c(c(/C=N/N5CCN(C)CC5)c(O)c4c3C2=O)NC(=O)/C(C)=C\\C=C\\[C@H](C)[C@H](O)[C@@H](C)[C@@H](O)[C@@H](C)[C@H](OC(C)=O)[C@@H]1C", "note": "[rifampicin]", "values": [{"measurement": "fluorescence of the M. tuberculosis cells diminished by", "value": "approximately 85%"}]}
